In patent US20210322396A1, “COMPOSITIONS WITH SYNERGISTIC PERMEATION ENHANCERS FOR DRUG DELIVERY” (Children's Medical Center Corporation, priority 2018, published 2021):
Several values for one entry are separate records, joined by “and”; a condition that tells them apart may be missing. Identical values can stand only once. Counter-ions that a name gives are not always drawn. Like-named read-outs stand apart in the source and are kept apart here.

Key:
[1] = Concentration-response curve fitting and isobolographic analysis of CPEs on VCIP48; type: in vitro ADME, chinchilla
physchem = settings: water
action potentials = settings: read-out: median inhibitory concentration, amplitudes of action potentials, cited from earlier work
sodium current = settings: read-out: KI, inhibition of sodium current, cited from earlier work
S. pneumoniae = settings: cited from earlier work
H. influenza = settings: cited from earlier work
[2] = three-parameter hyperbolic fit of CPE concentration-VCIP48 curve

SMILES: CCCCN1CCCCC1C(=O)Nc1c(C)cccc1C (stereo not drawn) [BUP, bupivacaine hydrochloride]
- soluble concentration (in 12%[P407-PBP] solution, weight by volume): up to 4%
- effect of pH on solubility in water (pH of the formulation tuned in the range of 3 to 9): not affected
- Emax relative to that of LIM [1]: 9.76%
- Emax relative to that of SDS [1]: 6.15%
- CPE concentration at which the permeation enhancement effect plateaued ([1]; Cip permeation, CPPB): ~1%
- concentration required to achieve VCIP48=0.22 mg (equivalent dose) ([1]; single CPE in CPPB): infinite
- concentration required to achieve VCIP48=0.24 mg (equivalent dose) ([1]; single CPE in CPPB): infinite
- concentration required to achieve a VCIP48 of 0.4 mg (equivalent dose) ([1]; single CPE in CPPB): infinite
- Emax (maximal VCIP48), derived from Equation (1) [1, 2]: 0.04 mg
- p (Hill coefficient) [1, 2]: 2.75
- solubility (physchem): ≥ 20 mg/mL

SMILES: CCCCN1CCCCC1C(=O)Nc1c(C)cccc1C (stereo not drawn) [BUP-fb, bupivacaine free base]
- solubility limit (in pure LIM): ~10%

SMILES: C=C(C)[C@H]1CC=C(C)CC1 [LIM, limonene]
- CPE concentration at which the permeation enhancement effect plateaued [1]: around 4%
- Emax (maximal VCIP48), derived from Equation (1) [1]: 0.41 mg
- concentration required to achieve VCIP48=0.22 mg (equivalent dose) [1]: ~1.8%
- concentration required to achieve a VCIP48 of 0.4 mg (equivalent dose) [1]: ~4%
- p (Hill coefficient) [1]: 5.33

SMILES: CCCCCCCCCCCCOS(=O)(=O)[O-].[Na+] [SDS, Sodium dodecyl sulfate]
- Emax (peak VCIP48), derived experimentally ([1]; experimentally determined peak effect, sulfate): 0.4 mg and 0.40 ^b mg
- concentration required to achieve VCIP48=0.24 mg (equivalent dose) ([1]; single CPE in CPPB): 10%
- p (Hill coefficient) [1, 2]: 0.82 ^
- Emax (maximal VCIP48), derived from Equation (1) ([1]; three-parameter hyperbolic fit of CPE concentration-VCIP48 curve, sulfate): 0.65 mg and 0.65 ^a mg

SMILES: NC1=N[C@H](O)[C@H]2[C@H]3O[C@]4(O)O[C@@H]([C@@H](O)[C@@]2(N1)[C@@H]4O)[C@]3(O)CO [TTX, Tetrodotoxin]
- IC50 (action potentials): 0.005 to 0.006 µM
- Ki (sodium current): 0.001 to 0.002 µM

SMILES: CCCCN1CCCCC1C(=O)Nc1c(C)cccc1C (stereo not drawn) [bupivacaine]
- IC50 (action potentials; in vitro): 180 µM
- Ki (sodium current; in vitro): 25 µM

SMILES: O=C(O)c1cn(C2CC2)c2cc(N3CCNCC3)c(F)cc2c1=O [ciprofloxacin]
- minimum inhibitory concentration (S. pneumoniae): about 4 μg/mL
- minimum inhibitory concentration (H. influenza): about 4 μg/mL
